Results: publication PMC8703873, “Structure and Activity of a Selective Antibiofilm Peptide SK-24 Derived from the NMR Structure of Human Cathelicidin LL-37” (Pharmaceuticals, 2021)
Values after ≈ are worked out from the molar mass of the structure shown. Non-standard residues stand in square brackets, D forms with d. Residues, ends and D or L forms follow the SMILES beside them. Bip = N[C@@H](Cc1ccc(-c2ccccc2)cc1)C(=O)O

Assays:
[1] = tested on: Human red blood cells; assay: Hemolytic assay; assay type: cell-based; details: red cells of human, 1 h
Experimental: Human red blood cells (hRBCs, the UNMC Blood Bank) were washed three to five times with saline (Fisher Scientific, Waltham, MA, USA) at 800 g for 10 min each time, until the supernatant was clear. The supernatant was discarded, and hRBCs were suspended in saline at a final density of 2%. Ninety microliters of hRBC suspensions were added to each well of 96-well plates containing 10 µL of 10× serially diluted peptides. After incubation at 37 °C for 1 h, the plates were centrifuged at 1500 rpm for 5 min. About 80 µL of the supernatant was carefully pipetted to a new 96-well microplate and read at 545 nm to measure the amount of hemoglobin released. The positive control was 1% Triton X-100, and the negative control was saline. The percentage of hRBC lysis was calculated based on the hemoglobin released.

[2] = tested on: S. aureus USA300 LAC; assay: Membrane depolarization (DiBAC4(3)); assay type: cell-based, Staphylococcus aureus; details: peptide 8 µM; similar trends at 16 and 32 µM; DiBAC4(3) fluorescence
Experimental: The experiment was conducted as described. In brief, an overnight culture of S. aureus USA300 LAC was subcultured in a fresh TSB medium and grown to the exponential phase. Cells were spun using centrifugation and washed twice with PBS, and resuspended in twice the volume of PBS containing 25 mM glucose and incubated at 37 °C for 15 min. For membrane depolarization measurements, 500 nM (final concentration) of the dye DiBAC4 (3) (bis-(1,3- dibutylbarbituric acid) trimethine oxonol) (AnaSpec, San Jose, CA, USA) was added and vortexed gently. Aliquots of 90 μL of the energized bacteria solution were loaded to the wells, and the plate was fed into a FLUOstar Omega microplate reader. Fluorescence was read for 20 min at excitation and emission wavelengths of 485 and 520 nm, respectively, to get dye normalization. Then 10 μL of diluted peptide solutions were added and gently mixed. Fluorescence readings were recorded for 40 min, where Triton X-100 (0.1%) was used as a positive control.

[3] = tested on: clinical and antibiotic-resistant pathogens (panel of Table 3); assay type: cell-based; details: all six pathogens
Experimental: (§1) The antibiotic-resistant pathogens used in this study include the Gram-positive bacteria Enterococcus faecium V286-17 and Staphylococcus aureus USA300 LAC and the Gram-negative bacteria Klebsiella pneumoniae E406-17, Acinetobacter baumannii B28-16, Pseudomonas aeruginosa E411-17, and Escherichia coli E423-17. All bacteria were cultivated in tryptic soy broth (TSB) at 37 °C, 220 rpm.
(§2) The antibacterial activity of peptides was evaluated using a standard broth microdilution protocol with minor modifications. In brief, peptides were made at various concentrations, 10 μL per well in a 96-well polystyrene microplate. Logarithmic phase bacterial cultures (i.e., optical density (OD) at 600 nm ≈ 0.5) were diluted to 0.001 OD, and aliquots of 90 μL were added to each well. Untreated bacterial culture and medium were included as positive and negative controls, respectively. Plates were incubated at 37 °C overnight and read at 630 nm using a ChroMate Microplate Reader (Awareness Technology, Palm City, FL, USA). […] Our previously designed peptide 17BIPHE2 [32] was included as a positive control, and RI-10, a peptide without antibacterial activity in rich media, was utilized as a negative control.

[4] = tested on: E. coli E423-17; assay type: cell-based, Escherichia coli
Experimental: as §1, §2

[5] = tested on: E. faecium V284-17; assay type: cell-based, Enterococcus faecium; details: V284-17

For `CC(C)C[C@H](NC(=O)[C@H](CC(N)=O)NC(=O)[C@H](CCCNC(=N)N)NC(=O)[C@@H](CC(C)C)NC(=O)[C@H](Cc1ccc(-c2ccccc2)cc1)NC(=O)[C@H](CC(=O)O)NC(=O)[C@H](CCCCN)NC(=O)[C@@H](CC(C)C)NC(=O)[C@H](CCCNC(=N)N)NC(=O)[C@H](CCC(N)=O)NC(=O)[C@@H](NC(=O)[C@@H](CC(C)C)NC(=O)[C@H](CCCNC(=N)N)NC(=O)[C@H](CCCCN)NC(=O)[C@H](Cc1ccc(-c2ccccc2)cc1)NC(=O)CN)C(C)C)C(=O)N[C@H](C(N)=O)C(C)C` [Peptide 17BIPHE2] (H-G[Bip]KR[dL]VQR[dL]KD[Bip][dL]RNLV-NH2; N-terminus assumed), the “HC50 (50% hemolytic concentration)” value [1] was ~ 200 µM, the “Membrane depolarization ability (order, words)” value [2] was “GI-20 > 17BIPHE2 > GF-17~SK-24 > LL-37” and the “MIC range over the pathogens of Table 3” value [3] was 2 to 8 µM. For the same compound, the MIC [4] was 4 µM (≈ 9.02 µg/mL) and the MIC [5] was 2 µM (≈ 4.51 µg/mL).
